Measurements from patent publication US20180370912A1, “COMPOUNDS AND METHODS FOR TREATING DISEASES MEDIATED BY PROTEIN DISULFIDE ISOMERASE” (Beth Israel Deaconess Medical Center, Inc., priority 2017, published 2018).

How the values were obtained:
thioredoxin [1] = target: T1, thioredoxin (Homo sapiens, UniProt P10599); test: Insulin reductase assay, thiol isomerase selectivity; format: biochemical; details: 10-fold IC50, FIG. 2
T1 sequence (P10599 1-105): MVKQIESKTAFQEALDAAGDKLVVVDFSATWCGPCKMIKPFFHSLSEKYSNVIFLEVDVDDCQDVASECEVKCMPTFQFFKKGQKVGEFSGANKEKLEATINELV
Experimental: (§1) The thiol isomerase-catalyzed reduction of insulin was assayed by measuring the increase in turbidity as detected at an optical density (OD) of 650 nm using a Spectramax M3 (Molecular Devices, Sunnyvale, Calif.). The validation assay consisted of 175 nM of PDI in a solution containing 100 mM potassium phosphate (pH 7.4) containing 0.2 mM bovine insulin, 2 mM EDTA, and 0.3 mM DTT (all purchased from Sigma Aldrich, St. Louis, Mo.), inhibitors were used at the concentrations indicated. The reaction was performed at 25° C. for one hour and thirty minutes. For assays of thiol isomerase selectivity, 11 nM PDI, ERp57 or Thioredoxin, or 33 nM ERpS were assayed in similar buffer conditions as described above and inhibitors were used at the indicated concentration. The reaction was performed at 37° C. for forty-five minutes. For assays of isolated domains studies, 400 nM protein was used, except for a, a′ and ab, in which 800 nM protein was used. The assay was performed in similar buffer conditions as described above. Bepristat 2a and N-(2,4-Dimethoxyphenyl)-N-(1-oxo-2-propyn-1-yl)-2-(2-thienyl)glycyl-glycine ethyl ester (PACMA-31) were used at a final concentration of 15 μM in these studies.

ERp5 [2] = target: T2, ERp5 (Homo sapiens, UniProt Q15084); test: as above; format: biochemical; details: 10-fold IC50, FIG. 2
T2 construct: recombinant His-tagged full-length ERp5, ERp72 and PDI domain fragments; His; made in house; host or cells: Escherichia coli Origami B (DE3), pET-15b
T2 sequence (Q15084 20-440): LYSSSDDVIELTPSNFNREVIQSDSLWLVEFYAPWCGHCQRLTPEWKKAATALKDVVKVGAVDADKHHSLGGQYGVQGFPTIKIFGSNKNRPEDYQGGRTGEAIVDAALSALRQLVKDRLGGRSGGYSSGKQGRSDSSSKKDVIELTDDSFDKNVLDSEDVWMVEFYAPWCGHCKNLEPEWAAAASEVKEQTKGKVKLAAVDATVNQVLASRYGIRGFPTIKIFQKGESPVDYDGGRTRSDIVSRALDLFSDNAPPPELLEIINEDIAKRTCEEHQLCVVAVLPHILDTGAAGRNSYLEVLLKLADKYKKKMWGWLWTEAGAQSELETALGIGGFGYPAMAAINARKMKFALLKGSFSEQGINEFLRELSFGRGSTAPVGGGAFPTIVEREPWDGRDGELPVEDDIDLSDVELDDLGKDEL
Experimental: as §1

thioredoxin [3] = target: T1, thioredoxin; test: Maleimide-polyethylene glycol-2-biotin (MPB) binding; details: 150 μM inhibitor, FIG. 2c, FIG. 8
Experimental: (§2) Maleimide-Polyethanol glycol-2-Biotin (MPB) binding experiments were performed in a reaction volume of 37.5 μL with 5 μM of thiol isomerase or bovine serum albumin (BSA) in Tris-buffered saline (TBS), in the presence and absence of 1 mM of N-ethylmaleimide (NEM) or bacitracin, and 150 μM of the mentioned other inhibitors. The reaction mixture was incubated at 37° C. for 1 hour. Subsequently, the reaction mixtures were incubated with 25 μM of MPB. The labeling was performed for 20 minutes at 25° C. A total of 12.5 μL of 4× Laemmli Sample Buffer with 5% β-mercaptoethanol was added to each of the samples, followed by heating at 95° C. for 10 minutes. From each sample, 10 μL was loaded on a 12% SDS-PAGE gel, followed by transfer on a nitrocellulose membrane. After blocking the membrane with TBS-T containing 5% BSA for one hour, the membrane was incubated with a 1:2000 dilution of Cy5-tagged Streptavidin for an hour in the dark. Detection of the immunoblots was performed using ImageQuant LAS 4000 and analysis was performed using ImageQuant TL software.

ERp5 [4] = target: T2, ERp5; test: as above; details: 150 μM inhibitor, FIG. 2c, FIG. 8
Experimental: as §2

full-length PDI = target: T3, full-length PDI (Homo sapiens, UniProt P07237); test: Small-angle X-ray scattering (SAXS)
T3 construct: FLAG; made in house; host or cells: Escherichia coli Origami B (DE3), pET-15b
Experimental: Further purification of full-length PDI was achieved by gel filtration. PDI (1.5, 3.0 and 4.5 mg/mL) was dialyzed against 20 mM Tris, 150 mM NaCl, 5% glycerol (pH: 8.0) containing 0.5 mM bepristat 1b or 2b or DMSO control at 4° C. overnight. Evaluation by SAXS was performed on the SIBYLS beamline in the Advanced Light Source using a high throughput data collection method.

[5] = target: T4, PDI fragments abb′ and b′xa′ (Homo sapiens, UniProt P07237); test: Di-eosin-GSSG reductase assay of PDI fragments; format: biochemical; details: 30 μM, FIG. 5a
T4 construct: abb′ (residues 1-331), or b′xa′ (residues 219-462); His; made in house; host or cells: Escherichia coli Origami B (DE3), pET-15b
T4 sequence (P07237 18-348): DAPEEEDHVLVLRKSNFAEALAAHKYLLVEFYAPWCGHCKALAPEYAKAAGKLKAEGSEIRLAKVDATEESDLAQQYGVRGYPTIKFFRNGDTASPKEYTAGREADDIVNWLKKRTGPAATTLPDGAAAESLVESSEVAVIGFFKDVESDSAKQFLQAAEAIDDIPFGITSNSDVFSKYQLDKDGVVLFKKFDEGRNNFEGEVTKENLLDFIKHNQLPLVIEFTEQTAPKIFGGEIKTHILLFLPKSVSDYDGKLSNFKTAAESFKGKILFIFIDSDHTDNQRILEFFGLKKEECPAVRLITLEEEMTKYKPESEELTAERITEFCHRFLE
Experimental: (§3) The probe di-eosin glutathione disulfide, di-eosin-GSSG, was prepared as previously described in Raturi, A., Vacratsis, P. O., Seslija, D., Lee, L. & Mutus, B., Biochem J 391, 351-357 (2005). Reductase activity of purified thiol isomerases and PDI domains was monitored in a 96-well fluorescence plate format. PDI, AGHA-PDI, ERpS, ERp57, ERp72 and PDI domains were assayed at 50 nM in the presence or absence of the indicated small molecules, peptides or cathepsin G. The assay included 100 mM potassium phosphate (pH 7.4) containing 2 mM EDTA, 5 μM DTT and 150 nM of the di-eosin GSSG probe. The increase in fluorescence was determined for 20 minutes by excitation at 520 nm and emission at 550 nm in a Synergy Biotek 4. The reduction of 150 nM di-eosin-GSSG by 5 μM DTT in the presence or absence of mentioned small molecules, peptides or proteins served as a negative control.

[6] = target: T5, PDI fragments abb′ and b′xa′ (Homo sapiens, UniProt P07237); test: Di-eosin-GSSG reductase assay of PDI fragments; format: biochemical; details: 30 μM, FIG. 5a; remark: listed apart in the source
T5 construct: abb′ (residues 1-331), or b′xa′ (residues 219-462); His; made in house; host or cells: Escherichia coli Origami B (DE3), pET-15b
Experimental: as §3
T5 sequence (P07237 236-479): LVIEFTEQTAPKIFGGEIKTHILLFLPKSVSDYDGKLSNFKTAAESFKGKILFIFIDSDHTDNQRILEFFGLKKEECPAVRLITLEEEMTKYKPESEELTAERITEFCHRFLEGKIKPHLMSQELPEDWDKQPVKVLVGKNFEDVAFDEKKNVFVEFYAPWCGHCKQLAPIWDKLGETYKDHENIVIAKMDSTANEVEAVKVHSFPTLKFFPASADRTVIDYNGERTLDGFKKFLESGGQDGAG

T3 sequence (P07237 18-508): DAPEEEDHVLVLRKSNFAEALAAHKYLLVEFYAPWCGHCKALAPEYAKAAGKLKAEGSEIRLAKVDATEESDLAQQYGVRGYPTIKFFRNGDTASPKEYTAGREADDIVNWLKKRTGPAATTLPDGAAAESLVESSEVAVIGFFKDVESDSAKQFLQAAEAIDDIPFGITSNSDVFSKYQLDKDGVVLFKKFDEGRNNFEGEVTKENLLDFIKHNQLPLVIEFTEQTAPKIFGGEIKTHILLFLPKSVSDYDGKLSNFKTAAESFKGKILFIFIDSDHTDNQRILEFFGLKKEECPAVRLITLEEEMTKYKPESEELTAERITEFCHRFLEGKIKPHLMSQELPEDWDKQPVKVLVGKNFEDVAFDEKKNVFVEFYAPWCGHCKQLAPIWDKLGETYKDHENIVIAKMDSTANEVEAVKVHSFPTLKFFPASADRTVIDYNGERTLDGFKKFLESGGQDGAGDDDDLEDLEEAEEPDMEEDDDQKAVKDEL

| Compound | inhibition of reductase activity of thioredoxin (thioredoxin [1]) | inhibition of reductase activity of ERp5 (ERp5 [2]) | reaction of MPB with the catalytic cysteines of thioredoxin (thioredoxin [3]) | reaction of MPB with the catalytic cysteines of ERp5 (ERp5 [4]) | PDI conformation by SAXS (full-length PDI) | di-eosin-GSSG cleavage by abb′ fragment [5] | di-eosin-GSSG cleavage by b′xa′ fragment [6] |
| --- | --- | --- | --- | --- | --- | --- | --- |
| C#CC(=O)N(c1ccc(OC)cc1OC)C(C(=O)NCC(=O)OCC)c1cccs1 (stereo not shown) [PACMA-31, N-(2,4-Dimethoxyphenyl)-N-(1-oxo-2-propyn-1-yl)-2-(2-thienyl)glycyl-glycine ethyl ester, reference compound] | demonstrated inhibitory activity | demonstrated inhibitory activity | interfered with the reaction of maleimide-polyethylene glycol-2-biotin (MPB) | interfered with the reaction of maleimide-polyethylene glycol-2-biotin (MPB) |  |  |  |
| CCOC(=O)c1c(CNCCN(CC)CC)n(-c2ccccc2)c2cc(Br)c(O)cc12 [bepristat 2a] |  |  |  |  | more compact conformation | failed to augment activity | significantly augmented the catalytic activity |
